Laboratory results taken from ChEMBL document CHEMBL1201862, “PubChem BioAssay data set” (2004).
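A five-concentration, 48-hour dose response in 96-well plates underlies each endpoint, interpolated linearly between surrounding concentrations. GI50 marks 50% less growth.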 Activity calls are given as the source filed them. Cut-off read from the data, not from the text of the source: active = GI50 up to about 1.1 µM and inactive = higher.

What was measured:
Experiment in all cases: NCI-60 cell line screen, 48 h
TK-10 = tested on: TK-10
HCT-116 = tested on: HCT-116
HL-60 = tested on: HL-60
HOP-92 = tested on: HOP-92
SK-MEL-2 = tested on: SK-MEL-2
SW-620 = tested on: SW-620
A498 = tested on: A498
OVCAR-4 = tested on: OVCAR-4
ACHN = tested on: ACHN
NCI/ADR-RES = tested on: NCI/ADR-RES
SK-MEL-28 = tested on: SK-MEL-28
RXF 393 = tested on: RXF 393
OVCAR-5 = tested on: OVCAR-5
PC-3 = tested on: PC-3
SF-268 = tested on: SF-268
SNB-19 = tested on: SNB-19
HCT-15 = tested on: HCT-15
BT-549 = tested on: BT-549
OVCAR-8 = tested on: OVCAR-8
IGROV-1 = tested on: IGROV-1
U-251 = tested on: U-251
HOP-62 = tested on: HOP-62
NCI-H23 = tested on: NCI-H23
MDA-N = tested on: MDA-N
HCC 2998 = tested on: HCC 2998
CAKI-1 = tested on: CAKI-1
786-0 = tested on: 786-0
SR = tested on: SR
DU-145 = tested on: DU-145
UACC-62 = tested on: UACC-62
UO-31 = tested on: UO-31
MDA-MB-435 = tested on: MDA-MB-435
T47D = tested on: T47D
NCI-H460 = tested on: NCI-H460
EKVX = tested on: EKVX
A549 = tested on: A549
M14 = tested on: M14
NCI-H522 = tested on: NCI-H522
SK-MEL-5 = tested on: SK-MEL-5
MOLT-4 = tested on: MOLT-4
Hs-578T = tested on: Hs-578T
MDA-MB-231 = tested on: MDA-MB-231
HT-29 = tested on: HT-29
Malme-3M = tested on: Malme-3M
OVCAR-3 = tested on: OVCAR-3
SN12C = tested on: SN12C
SF-295 = tested on: SF-295
LOX IMVI = tested on: LOX IMVI
K562 = tested on: K562
UACC-257 = tested on: UACC-257
CCRF-CEM = tested on: CCRF-CEM
KM12 = tested on: KM12
MCF7 = tested on: MCF7
NCI-H226 = tested on: NCI-H226
SF-539 = tested on: SF-539
SNB-75 = tested on: SNB-75
RPMI-8226 = tested on: RPMI-8226
SK-OV-3 = tested on: SK-OV-3
COLO 205 = tested on: COLO 205

SMILES: Oc1ccc(-c2ccccc2)nn1
- GI50 (TK-10): > 100 µM (inactive)
- GI50 (HCT-116): > 100 µM (inactive)
- GI50 (HL-60): > 100 µM (inactive)
- GI50 (HOP-92): > 100 µM (inactive)
- GI50 (SK-MEL-2): > 100 µM (inactive)
- GI50 (SW-620): > 100 µM (inactive)
- GI50 (A498): > 100 µM (inactive)
- GI50 (OVCAR-4): > 100 µM (inactive)
- GI50 (ACHN): > 100 µM (inactive)
- GI50 (NCI/ADR-RES): > 100 µM (inactive)
- GI50 (SK-MEL-28): > 100 µM (inactive)
- GI50 (RXF 393): > 100 µM (inactive)
- GI50 (OVCAR-5): > 100 µM (inactive)
- GI50 (PC-3): > 100 µM (inactive)
- GI50 (SF-268): > 100 µM (inactive)
- GI50 (SNB-19): > 100 µM (inactive)
- GI50 (HCT-15): > 100 µM
- GI50 (BT-549): > 100 µM (inactive)
- GI50 (OVCAR-8): > 100 µM (inactive)
- GI50 (IGROV-1): > 100 µM (inactive)
- GI50 (U-251): > 100 µM (inactive)
- GI50 (HOP-62): > 100 µM (inactive)
- GI50 (NCI-H23): > 100 µM (inactive)
- GI50 (MDA-N): > 100 µM (inactive)
- GI50 (HCC 2998): > 100 µM (inactive)
- GI50 (CAKI-1): > 100 µM (inactive)
- GI50 (786-0): > 100 µM (inactive)
- GI50 (SR): > 100 µM (inactive)
- GI50 (DU-145): > 100 µM (inactive)
- GI50 (UACC-62): > 100 µM (inactive)
- GI50 (UO-31): > 100 µM (inactive)
- GI50 (MDA-MB-435): > 100 µM (inactive)
- GI50 (T47D): > 100 µM (inactive)
- GI50 (NCI-H460): > 100 µM (inactive)
- GI50 (EKVX): > 100 µM (inactive)
- GI50 (A549): > 100 µM (inactive)
- GI50 (M14): > 100 µM (inactive)
- GI50 (NCI-H522): > 100 µM (inactive)
- GI50 (SK-MEL-5): > 100 µM (inactive)
- GI50 (MOLT-4): > 100 µM (inactive)
- GI50 (Hs-578T): > 100 µM (inactive)
- GI50 (MDA-MB-231): > 100 µM (inactive)
- GI50 (HT-29): > 100 µM (inactive)
- GI50 (Malme-3M): > 100 µM (inactive)
- GI50 (OVCAR-3): > 100 µM (inactive)
- GI50 (SN12C): > 100 µM (inactive)
- GI50 (SF-295): > 100 µM (inactive)
- GI50 (LOX IMVI): > 100 µM (inactive)
- GI50 (K562): > 100 µM (inactive)
- GI50 (UACC-257): > 100 µM (inactive)
- GI50 (CCRF-CEM): > 100 µM (inactive)
- GI50 (KM12): > 100 µM (inactive)

SMILES: CCOP(=O)(OCC)/C(=C/n1c(=S)[nH]c2ccccc21)C(=O)OC
- GI50 (HCT-116): > 100 µM (inactive)
- GI50 (HL-60): > 100 µM (inactive)
- GI50 (MCF7): > 100 µM (inactive)
- GI50 (SK-MEL-2): > 100 µM (inactive)
- GI50 (SW-620): > 100 µM (inactive)
- GI50 (NCI-H226): > 100 µM (inactive)
- GI50 (A498): > 100 µM (inactive)
- GI50 (SF-539): > 100 µM (inactive)
- GI50 (OVCAR-4): 45.1 µM (inactive)
- GI50 (ACHN): > 100 µM (inactive)
- GI50 (NCI/ADR-RES): > 100 µM (inactive)
- GI50 (SK-MEL-28): > 100 µM (inactive)
- GI50 (RXF 393): > 100 µM (inactive)
- GI50 (OVCAR-5): > 100 µM (inactive)
- GI50 (PC-3): > 100 µM (inactive)
- GI50 (SF-268): > 100 µM (inactive)
- GI50 (HCT-15): 11.7 µM
- GI50 (SNB-75): 34.4 µM (inactive)
- GI50 (BT-549): > 100 µM (inactive)
- GI50 (OVCAR-8): > 100 µM (inactive)
- GI50 (IGROV-1): > 100 µM (inactive)
- GI50 (U-251): > 100 µM (inactive)
- GI50 (HOP-62): > 100 µM (inactive)
- GI50 (NCI-H23): > 100 µM (inactive)
- GI50 (MDA-N): > 100 µM (inactive)
- GI50 (HCC 2998): 51.9 µM (inactive)
- GI50 (CAKI-1): > 100 µM (inactive)
- GI50 (786-0): > 100 µM (inactive)
- GI50 (SR): > 100 µM (inactive)
- GI50 (DU-145): > 100 µM (inactive)
- GI50 (UACC-62): > 100 µM (inactive)
- GI50 (MDA-MB-435): > 100 µM (inactive)
- GI50 (RPMI-8226): > 100 µM (inactive)
- GI50 (T47D): > 100 µM (inactive)
- GI50 (NCI-H460): 10 µM (inactive)
- GI50 (EKVX): > 100 µM (inactive)
- GI50 (A549): > 100 µM (inactive)
- GI50 (M14): > 100 µM (inactive)
- GI50 (NCI-H522): > 100 µM (inactive)
- GI50 (SK-MEL-5): > 100 µM (inactive)
- GI50 (MOLT-4): > 100 µM (inactive)
- GI50 (Hs-578T): 95.1 µM (inactive)
- GI50 (MDA-MB-231): > 100 µM (inactive)
- GI50 (HT-29): > 100 µM (inactive)
- GI50 (Malme-3M): > 100 µM (inactive)
- GI50 (OVCAR-3): 0.0311 µM (active)
- GI50 (SN12C): > 100 µM (inactive)
- GI50 (SF-295): > 100 µM (inactive)
- GI50 (LOX IMVI): > 100 µM (inactive)
- GI50 (SK-OV-3): > 100 µM (inactive)
- GI50 (K562): > 100 µM (inactive)
- GI50 (COLO 205): > 100 µM (inactive)
- GI50 (UACC-257): > 100 µM (inactive)
- GI50 (CCRF-CEM): > 100 µM (inactive)
- GI50 (KM12): > 100 µM (inactive)

SMILES: COC(=O)C(=O)CC(=O)c1cccc(OC)c1
- GI50 (TK-10): 78.3 µM (inactive)
- GI50 (HCT-116): > 100 µM (inactive)
- GI50 (HL-60): > 100 µM (inactive)
- GI50 (MCF7): > 100 µM (inactive)
- GI50 (SW-620): > 100 µM (inactive)
- GI50 (NCI-H226): > 100 µM (inactive)
- GI50 (A498): > 100 µM (inactive)
- GI50 (SF-539): > 100 µM (inactive)
- GI50 (OVCAR-4): > 100 µM (inactive)
- GI50 (ACHN): > 100 µM (inactive)
- GI50 (NCI/ADR-RES): > 100 µM (inactive)
- GI50 (SK-MEL-28): > 100 µM (inactive)
- GI50 (RXF 393): > 100 µM (inactive)
- GI50 (OVCAR-5): > 100 µM (inactive)
- GI50 (PC-3): > 100 µM (inactive)
- GI50 (SF-268): > 100 µM (inactive)
- GI50 (SNB-19): > 100 µM (inactive)
- GI50 (HCT-15): > 100 µM
- GI50 (SNB-75): > 100 µM (inactive)
- GI50 (BT-549): > 100 µM (inactive)
- GI50 (OVCAR-8): > 100 µM (inactive)
- GI50 (IGROV-1): < 0.01 µM (active)
- GI50 (U-251): > 100 µM (inactive)
- GI50 (HOP-62): > 100 µM (inactive)
- GI50 (NCI-H23): > 100 µM (inactive)
- GI50 (MDA-N): 5.66 µM (inactive)
- GI50 (HCC 2998): > 100 µM (inactive)
- GI50 (CAKI-1): > 100 µM (inactive)
- GI50 (786-0): > 100 µM (inactive)
- GI50 (DU-145): > 100 µM (inactive)
- GI50 (UACC-62): > 100 µM (inactive)
- GI50 (UO-31): > 100 µM (inactive)
- GI50 (MDA-MB-435): > 100 µM (inactive)
- GI50 (RPMI-8226): > 100 µM (inactive)
- GI50 (T47D): > 100 µM (inactive)
- GI50 (NCI-H460): > 100 µM (inactive)
- GI50 (EKVX): > 100 µM (inactive)
- GI50 (A549): > 100 µM (inactive)
- GI50 (M14): > 100 µM (inactive)
- GI50 (SK-MEL-5): > 100 µM (inactive)
- GI50 (MOLT-4): > 100 µM (inactive)
- GI50 (Hs-578T): > 100 µM (inactive)
- GI50 (MDA-MB-231): > 100 µM (inactive)
- GI50 (HT-29): > 100 µM (inactive)
- GI50 (Malme-3M): > 100 µM (inactive)
- GI50 (OVCAR-3): > 100 µM (inactive)
- GI50 (SN12C): > 100 µM (inactive)
- GI50 (SF-295): > 100 µM (inactive)
- GI50 (LOX IMVI): > 100 µM (inactive)
- GI50 (SK-OV-3): > 100 µM (inactive)
- GI50 (K562): > 100 µM (inactive)
- GI50 (COLO 205): > 100 µM (inactive)
- GI50 (UACC-257): > 100 µM (inactive)
- GI50 (CCRF-CEM): > 100 µM (inactive)
- GI50 (KM12): > 100 µM (inactive)
